In patent publication US7994179B2, “Carbamoyl compounds as DGAT1 inhibitors 190” (AstraZeneca AB, priority 2007, dated 2011):

Target: T1, human DGAT1 expressed in insect cell membranes (Homo sapiens, UniProt O75907)
T1 construct: made in house; host or cells: sf9 insect cells (baculovirus), membrane fraction
T1 sequence (O75907 1-488): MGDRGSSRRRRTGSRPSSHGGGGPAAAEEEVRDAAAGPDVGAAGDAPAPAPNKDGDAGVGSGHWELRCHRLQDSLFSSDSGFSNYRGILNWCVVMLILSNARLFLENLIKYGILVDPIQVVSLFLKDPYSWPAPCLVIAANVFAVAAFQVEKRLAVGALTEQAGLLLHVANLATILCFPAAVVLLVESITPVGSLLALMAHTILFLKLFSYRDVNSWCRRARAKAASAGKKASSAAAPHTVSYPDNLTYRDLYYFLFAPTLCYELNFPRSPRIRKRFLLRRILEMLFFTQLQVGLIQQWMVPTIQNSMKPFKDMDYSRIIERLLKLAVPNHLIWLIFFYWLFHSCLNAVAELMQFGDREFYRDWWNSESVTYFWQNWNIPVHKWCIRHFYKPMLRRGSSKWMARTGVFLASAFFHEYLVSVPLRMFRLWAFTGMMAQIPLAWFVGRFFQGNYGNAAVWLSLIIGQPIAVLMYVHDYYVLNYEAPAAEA
Assay: Human Enzyme Assay: in vitro DGAT1 inhibition, 14C oleoyl coenzyme A incorporation into triolein
Format: biochemical
Settings: for IC50: acetone concentration not stated for these values, usually a mean of 2 measurements, read-out: IC50
Procedure: Briefly, sf9 cells were infected with recombinant baculovirus containing human DGAT1 coding sequences and harvested after 48 h. […] The membrane fraction at the interphase was collected, washed, and stored in liquid nitrogen.
The reaction was started by adding ^14C oleoyl coenzyme A (30 μM final concentration) and incubated at room temperature for 30 minutes. The reaction was stopped by adding 200 μl 2-propanol:heptane 7:1. Radioactive triolein product was separated into the organic phase by adding 300 μl heptane and 100 μl 0.1 M carbonate buffer pH 9.5. DGAT1 activity was quantified by counting aliquots of the upper heptane layer by liquid scintillography.
Stated figures are usually a mean of a number of measurements (usually 2 measurements) according to standard practice.

| IC50 [µM] | inhibition at 10 µM (compound at 10 μM) [%] | SMILES |
| --- | --- | --- |
| 0.18 |  | Cc1cc(-c2nc(C(N)=O)c(C)nc2C)cc(C)c1-c1ccc(CC(=O)O)cc1 [Example 63] |
| 7.8 |  | COC(=O)[C@H]1CC[C@H](c2ccc(-c3nc(C(N)=O)cnc3C)cc2)CC1 [Example 65, Methyl trans-4-{4-[6-(aminocarbonyl)-3-methylpyrazin-2-yl]phenyl}-cyclohexanecarboxylate] |
|  | 25 | Cc1nc(C)c(-c2ccc(-c3ccc(CC(=O)O)cc3)c3ccccc23)nc1C(N)=O [Example 68, 2-(4-(4-(6-carbamoyl-3,5-dimethylpyrazin-2-yl)naphthalen-1-yl)phenyl)acetic acid] |
